Results: patent US20230047208A1, “RNA Splicing Modulation” (The General Hospital Corporation, priority 2020, published 2023)

Tested on: wildtype (WT) human fibroblast cell lines
Assay: Transcriptome-wide splicing by RNA sequencing (RNASeq), exon triplet PSI change;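 on Effect: six WT fibroblast lines treated seven days versus DMSO vehicle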;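 on T-PSI: T-PSI is average treated PSI after seven days of treatment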
Assay type: cell-based
Set-up: key to Effect: Exclusion; Inclusion; Unchanged
Description: FIG. 2A provides a representation of an exon triplet. Exon U is upstream of Exon X, which is upstream of Exon D. R1, R2 and R3 represent RNA sequencing (RNASeq) reads spanning the regions between two adjacent exons. UI1, I1X, XI2 and I2D are four regions flanking the four splice sites of the exon-triplet. Each flanking region consists of 25 exonic base pairs and 75 intronic base pairs.
FIG. 2B provides a volcano plot showing the ψ (PSI: Percent Spliced-In) changes in splicing after treatment with Compound (I). Each dot represents one of the 161,097 expressed exon triplets in human fibroblasts. The x axis represents the ψ changes after treatment and the y axis represents the False Discovery Rate (FDR) (log 10 transformed). […] The horizontal dashed line indicates an FDR of 0.1. The dots on the right side of the right vertical dashed line and above the horizontal dashed line represent the exon-triplets with an increase for Exon X inclusion (Δψ≥0.1 and FDR<0.1) while the dots on left side of the left vertical dashed line and above the horizontal dashed line represent an increase for Exon X exclusion (Δψ≤−0.1 and FDR<0.1). Black dots in-between the two vertical dashed lines represent exon-triplets unchanged from the treatment.
In some aspects, analysis is performed on data derived from the assay to measure the magnitude of splicing to determine the amount of exons spliced into an mRNA transcript that is produced in the presence of Compound (I) relative to the amount in the absence of Compound (I) or presence of a negative control. In a preferred aspect, the method utilized is calculation of change in Percent Spliced In (ΔPSI). […] The ΔPSI value is derived from the formula: […]
The values for “a” and “b” represent the number of reads supporting the probability for potential inclusion or exclusion of an exon in an RNA transcript. The “a” value is derived from the number of reads within an exon triplet covering, in 5′ to 3′ order: the last few bases (>1 nucleotide) of an upstream exon operably linked to the first few bases (>1 nucleotide) of a middle exon. The “b” value is derived from the number of reads within an exon triplet covering, in 5′ to 3′ order: the last few bases (>1 nucleotide) of the middle exon operably linked to the first few bases (>1 nucleotide) of a downstream exon. The number of reads will indicate whether the splice junction of a middle exon has been identified as potentially having a CNN Motif(s) by the CNN Model described herein, wherein the inclusion or exclusion of the middle exon may be modulated in the presence of Compound (I) to produce one or more mature RNA isoforms from the gene transcript. The value for “c” represents the number of reads supporting the exclusion of the middle exon.
The effect on splicing modulation and corresponding splice differences toward exon inclusion or exclusion was determined by counting the RNASeq reads covering two splice junctions of exon triplets (three consecutive exons: Exon U, Exon X, Exon D) and the corresponding intervening introns, then comparing the change in Percent Spliced In (ΔPSI or Δψ) of the middle exon (Exon X) after treatment (as shown in FIG. 2A)^52,53. 934 exon triplets were identified showing differential middle exon inclusion or exclusion in response to Compound (I) treatment. Of these, 254 were exon inclusion events (Δψ≥0.1 and FDR<0.1) and 680 were exon exclusion events (Δψ≤−0.1 and FDR<0.1) (as shown in FIG. 2B). […] The splicing results were evaluated by RT-PCR in independent replicate experiments, confirming all the calculated Δψ values. […]

[1] = NSMCE2 Exon 126168242-126168340

Clc1nc(NCc2ccncc2)c2cc[nH]c2n1 [Compound (I), 2-chloro-N-(pyridin-4-ylmethyl)-7H-pyrrolo[2,3-d]pyrimidin-4-amine]
Effect (NIN Exon 51233025-51233114): Unc
T-PSI (NIN Exon 51233025-51233114): 0.896
ΔPSI (NIN Exon 51233025-51233114): 0.008
Effect (NIPA2 Exon 23027801-23027922): Exc
T-PSI (NIPA2 Exon 23027801-23027922): 0.326
ΔPSI (NIPA2 Exon 23027801-23027922): −0.185
Effect (NIPA2 Exon 23033278-23033413): Exc
T-PSI (NIPA2 Exon 23033278-23033413): 0.608
ΔPSI (NIPA2 Exon 23033278-23033413): −0.163
Effect (NLRC5 Exon 57110731-57110814): Exc
T-PSI (NLRC5 Exon 57110731-57110814): 0.857
ΔPSI (NLRC5 Exon 57110731-57110814): −0.122
Effect (NLRX1 Exon 119043065-119043134): Exc
T-PSI (NLRX1 Exon 119043065-119043134): 0.742
ΔPSI (NLRX1 Exon 119043065-119043134): −0.143
Effect (NPEPPS Exon 45654447-45654526): Inc
T-PSI (NPEPPS Exon 45654447-45654526): 0.172
ΔPSI (NPEPPS Exon 45654447-45654526): 0.135
Effect (NPR2 Exon 35802729-35802800): Exc
T-PSI (NPR2 Exon 35802729-35802800): 0.878
ΔPSI (NPR2 Exon 35802729-35802800): −0.101
Effect (NPRL3 Exon 167300-167374): Exc
T-PSI (NPRL3 Exon 167300-167374): 0.697
ΔPSI (NPRL3 Exon 167300-167374): −0.155
Effect (NPRL3 Exon 174936-175072): Unc
T-PSI (NPRL3 Exon 174936-175072): 0.206
ΔPSI (NPRL3 Exon 174936-175072): 0.006
Effect (NPRL3 Exon 180521-180590): Unc
T-PSI (NPRL3 Exon 180521-180590): 0.858
ΔPSI (NPRL3 Exon 180521-180590): 0.003
Effect (NRG1 Exon 32620736-32620877): Inc
T-PSI (NRG1 Exon 32620736-32620877): 0.510
ΔPSI (NRG1 Exon 32620736-32620877): 0.182
Effect (NSFL1C Exon 1436359-1436364): Exc
T-PSI (NSFL1C Exon 1436359-1436364): 0.345
ΔPSI (NSFL1C Exon 1436359-1436364): −0.153
Effect (NSFL1C Exon 1436359-1436515): Exc
T-PSI (NSFL1C Exon 1436359-1436515): 0.214
ΔPSI (NSFL1C Exon 1436359-1436515): −0.123
Effect [1]: Inc
T-PSI [1]: 0.162
ΔPSI [1]: 0.133
Effect (NSUN4 Exon 46812593-46812747): Exc
T-PSI (NSUN4 Exon 46812593-46812747): 0.817
ΔPSI (NSUN4 Exon 46812593-46812747): −0.124
Effect (NT5C2 Exon 104871502-104871562): Exc
T-PSI (NT5C2 Exon 104871502-104871562): 0.351
ΔPSI (NT5C2 Exon 104871502-104871562): −0.306
Effect (NTMT1 Exon 132394929-132395080): Unc
T-PSI (NTMT1 Exon 132394929-132395080): 0.828
ΔPSI (NTMT1 Exon 132394929-132395080): −0.009
Effect (NTPCR Exon 233091303-233091465): Unc
T-PSI (NTPCR Exon 233091303-233091465): 0.785
ΔPSI (NTPCR Exon 233091303-233091465): 0.009
Effect (NUB1 Exon 151046159-151046326): Exc
T-PSI (NUB1 Exon 151046159-151046326): 0.858
ΔPSI (NUB1 Exon 151046159-151046326): −0.126
Effect (NUBP2 Exon 1836758-1836956): Unc
T-PSI (NUBP2 Exon 1836758-1836956): 0.575
ΔPSI (NUBP2 Exon 1836758-1836956): 0.006
Effect (NUMB Exon 73833605-73833689): Unc
T-PSI (NUMB Exon 73833605-73833689): 0.697
ΔPSI (NUMB Exon 73833605-73833689): −0.003
Effect (NUP43 Exon 150059779-150059914): Exc
T-PSI (NUP43 Exon 150059779-150059914): 0.865
ΔPSI (NUP43 Exon 150059779-150059914): −0.118
Effect (NUP62 Exon 50430951-50431105): Inc
T-PSI (NUP62 Exon 50430951-50431105): 0.787
ΔPSI (NUP62 Exon 50430951-50431105): 0.124
Effect (NUP98 Exon 3707294-3707424): Unc
T-PSI (NUP98 Exon 3707294-3707424): 0.862
ΔPSI (NUP98 Exon 3707294-3707424): −0.009
Effect (NUPL2 Exon 23235458-23235534): Exc
T-PSI (NUPL2 Exon 23235458-23235534): 0.602
ΔPSI (NUPL2 Exon 23235458-23235534): −0.244
Effect (NUTF2 Exon 67881181-67881359): Unc
